{"source": "patent US20020137929A1", "about": "“1 - (3-heterocyclylphenyl) isothiourea, -isourea, -guanidine and -amidine herbicidal agents” (Intellectual Property Department, BASF Aktiengesellschaft, priority 1998, published 2002)", "key": {"[1]": {"test_system": "CASOB (Sicklepod)", "assay": "Postemergence herbicidal evaluation", "type": "in vivo, Cassia obtusifolia", "conditions": "postemergence", "procedure,_shortened": "(§1)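 Visual 0-9 injury score (stand, vigor, malformation, size, chlorosis, appearance vs untreated) taken four to five weeks post-spray, averaged across repeat tests. Test plants about two weeks old; foliar spray of acetone/water (1:1) with 0.5% surfactant delivering ~0.0156-0.500 kg active/ha.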"}, "[2]": {"test_system": "CHEAL (Lambsquarters, Common)", "assay": "Postemergence herbicidal evaluation", "type": "in vivo, Chenopodium album", "conditions": "postemergence", "procedure,_shortened": "as §1"}, "[3]": {"test_system": "ECHCG (Barnyardgrass)", "assay": "Postemergence herbicidal evaluation", "type": "in vivo, Echinochloa crus-galli", "conditions": "postemergence", "procedure,_shortened": "as §1"}, "[4]": {"test_system": "ORYSAT (Rice, Tebonnet)", "assay": "Postemergence herbicidal evaluation", "type": "in vivo, Oryza sativa, (L.) Tebonnet", "conditions": "postemergence", "procedure,_shortened": "as §1"}, "[5]": {"test_system": "GALAP (Galium)", "assay": "Preemergence herbicidal evaluation", "type": "in vivo, Galium aparine", "conditions": "rated 4-5 weeks after treatment", "procedure,_shortened": "(§2)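 Rating at 4–5 wk post-spray on a 0–9 visual scale vs control. Application: aqueous acetone, ~0.0156–0.500 kg/ha, to soil surface after seeding, preemergence.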"}, "[6]": {"test_system": "SETVI (Foxtail, Green)", "assay": "Preemergence herbicidal evaluation", "type": "in vivo, Setaria viridis", "conditions": "rated 4-5 weeks after treatment", "procedure,_shortened": "as §2"}, "[7]": {"test_system": "GLXMAW (Soybean, Williams)", "assay": "Preemergence herbicidal evaluation", "type": "in vivo, Glycine max, (L.) Merr. cv Williams", "conditions": "rated 4-5 weeks after treatment", "procedure,_shortened": "as §2"}, "[8]": {"test_system": "ORYSAT (Rice, Tebonnet)", "assay": "Preemergence herbicidal evaluation", "type": "in vivo, Oryza sativa, (L.) Tebonnet", "conditions": "rated 4-5 weeks after treatment", "procedure,_shortened": "as §2"}, "[9]": {"test_system": "TRZAWR (Wheat, Winter, cv Riband)", "assay": "Preemergence herbicidal evaluation", "type": "in vivo, Triticum aestivum", "conditions": "rated 4-5 weeks after treatment", "procedure,_shortened": "as §2"}, "[10]": {"test_system": "ZEAMX (Corn, Field)", "assay": "Preemergence herbicidal evaluation", "type": "in vivo, Zea mays", "conditions": "rated 4-5 weeks after treatment", "procedure,_shortened": "as §2"}, "[11]": {"test_system": "CYPIR (Rice Flatsedge)", "assay": "Preemergence weed control under flooded paddy conditions", "type": "in vivo, Cyperus iria", "conditions": "rated 3-4 weeks after treatment", "procedure,_shortened": "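Seeds or propagules sown in top 0.5 cm of silt loam soil, flooded 1.5 to 3 cm above surface throughout. Compound in 50/50 v/v aqueous/acetone pipetted into flood water at about 0.0313 to 0.500 kg/ha. Visual 0-9 rating versus control after three to four weeks in greenhouse.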"}, "[12]": {"test_system": "MOOVA (Monochoria)", "assay": "Preemergence weed control under flooded paddy conditions", "type": "in vivo, Monochoria vaginalis", "conditions": "rated 3-4 weeks after treatment", "procedure,_shortened": "(§3)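 Ratings on a 0-9 visual scale cover stand, vigor, malformation, size, chlorosis and overall appearance relative to a control, taken three to four weeks post-treatment. Application was into flood water over freshly sown silt loam at roughly 0.0313 to 0.500 kg/ha.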"}, "[13]": {"test_system": "SAGPY (Arrowhead (Pygmaea))", "assay": "Preemergence weed control under flooded paddy conditions", "type": "in vivo, Sagittaria pygmaea", "conditions": "rated 3-4 weeks after treatment", "procedure,_shortened": "as §3"}, "[14]": {"test_system": "CYPSE (Flatsedge)", "assay": "Postemergence weed control under flooded paddy conditions", "type": "in vivo, Cyperus serotinus", "conditions": "postemergence weeds, 3-4 weeks after treatment", "procedure,_shortened": "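With weeds 3 to 5 cm tall and rice at the 1.5 to 2.5 leaf stage, containers were flooded and water held 1.5 to 3 cm above soil. Compounds in 50/50 v/v aqueous/acetone went into the flood water at about 0.0313 to 0.500 kg/ha a.i. Effects were visually rated 0–9 against controls after three to four weeks in the greenhouse.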"}}}
{"molecule": "CCOC(=O)CN1C(=O)C2(CC2)SC1=Nc1cc(-n2c(=O)cc(C(F)(F)F)n(C)c2=O)c(F)cc1Cl", "note": "[Compound 15, Ethyl 5-{{2-chloro-5-[3,6-dihydro-3-methyl-2,6-dioxo-4-(trifluoromethyl)-1(2H)-pyrimidinyl]-4-fluorophenyl}imino}-7-oxo-4-thia-6-azaspiro[2.4]-heptane-6-acetate]", "values": [{"measurement": "CASOB herbicidal rating", "setting": "[1]; rate 0.0156 kg/ha", "result": 0.0}, {"measurement": "CASOB herbicidal rating", "setting": "[1]; rate 0.0313 kg/ha", "result": 0.0}, {"measurement": "CASOB herbicidal rating", "setting": "[1]; rate 0.0625 kg/ha", "result": 0.0}, {"measurement": "CASOB herbicidal rating", "setting": "[1]; rate 0.1250 kg/ha", "result": 4.0}, {"measurement": "CHEAL herbicidal rating", "setting": "[2]; rate 0.0156 kg/ha", "result": 3.0}, {"measurement": "CHEAL herbicidal rating", "setting": "[2]; rate 0.0313 kg/ha", "result": 3.0}, {"measurement": "CHEAL herbicidal rating", "setting": "[2]; rate 0.0625 kg/ha", "result": 9.0}, {"measurement": "CHEAL herbicidal rating", "setting": "[2]; rate 0.1250 kg/ha", "result": 9.0}, {"measurement": "ECHCG herbicidal rating", "setting": "[3]; rate 0.0156 kg/ha", "result": 0.0}, {"measurement": "ECHCG herbicidal rating", "setting": "[3]; rate 0.0313 kg/ha", "result": 0.0}, {"measurement": "ECHCG herbicidal rating", "setting": "[3]; rate 0.0625 kg/ha", "result": 3.0}, {"measurement": "ECHCG herbicidal rating", "setting": "[3]; rate 0.1250 kg/ha", "result": 9.0}, {"measurement": "ORYSAT herbicidal rating", "setting": "[4]; rate 0.0156 kg/ha", "result": 4.5}, {"measurement": "ORYSAT herbicidal rating", "setting": "[4]; rate 0.0313 kg/ha", "result": 5.0}, {"measurement": "ORYSAT herbicidal rating", "setting": "[4]; rate 0.0625 kg/ha", "result": 6.5}, {"measurement": "ORYSAT herbicidal rating", "setting": "[4]; rate 0.1250 kg/ha", "result": 6.5}, {"measurement": "GALAP preemergence herbicidal rating", "setting": "[5]; rate 0.0156 kg/ha", "result": 0.0}, {"measurement": "GALAP preemergence herbicidal rating", "setting": "[5]; rate 0.0313 kg/ha", "result": 0.0}, {"measurement": "GALAP preemergence herbicidal rating", "setting": "[5]; rate 0.0625 kg/ha", "result": 9.0}, {"measurement": "GALAP preemergence herbicidal rating", "setting": "[5]; rate 0.1250 kg/ha", "result": 9.0}, {"measurement": "GALAP preemergence herbicidal rating", "setting": "[5]; rate 0.2500 kg/ha", "result": 9.0}, {"measurement": "SETVI preemergence herbicidal rating", "setting": "[6]; rate 0.0156 kg/ha", "result": 0.5}, {"measurement": "SETVI preemergence herbicidal rating", "setting": "[6]; rate 0.0313 kg/ha", "result": 0.5}, {"measurement": "SETVI preemergence herbicidal rating", "setting": "[6]; rate 0.0625 kg/ha", "result": 0.5}, {"measurement": "SETVI preemergence herbicidal rating", "setting": "[6]; rate 0.1250 kg/ha", "result": 4.0}, {"measurement": "SETVI preemergence herbicidal rating", "setting": "[6]; rate 0.2500 kg/ha", "result": 9.0}, {"measurement": "GLXMAW preemergence herbicidal rating", "setting": "[7]; rate 0.0156 kg/ha", "result": 0.5}, {"measurement": "GLXMAW preemergence herbicidal rating", "setting": "[7]; rate 0.0313 kg/ha", "result": 0.5}, {"measurement": "GLXMAW preemergence herbicidal rating", "setting": "[7]; rate 0.0625 kg/ha", "result": 1.0}, {"measurement": "GLXMAW preemergence herbicidal rating", "setting": "[7]; rate 0.1250 kg/ha", "result": 2.5}, {"measurement": "GLXMAW preemergence herbicidal rating", "setting": "[7]; rate 0.2500 kg/ha", "result": 5.5}, {"measurement": "ORYSAT preemergence herbicidal rating", "setting": "[8]; rate 0.0156 kg/ha", "result": 0.0}, {"measurement": "ORYSAT preemergence herbicidal rating", "setting": "[8]; rate 0.0313 kg/ha", "result": 0.0}, {"measurement": "ORYSAT preemergence herbicidal rating", "setting": "[8]; rate 0.0625 kg/ha", "result": 0.5}, {"measurement": "ORYSAT preemergence herbicidal rating", "setting": "[8]; rate 0.1250 kg/ha", "result": 1.0}, {"measurement": "ORYSAT preemergence herbicidal rating", "setting": "[8]; rate 0.2500 kg/ha", "result": 1.5}, {"measurement": "TRZAWR preemergence herbicidal rating", "setting": "[9]; rate 0.0156 kg/ha", "result": 0.0}, {"measurement": "TRZAWR preemergence herbicidal rating", "setting": "[9]; rate 0.0313 kg/ha", "result": 0.0}, {"measurement": "TRZAWR preemergence herbicidal rating", "setting": "[9]; rate 0.0625 kg/ha", "result": 0.0}, {"measurement": "TRZAWR preemergence herbicidal rating", "setting": "[9]; rate 0.1250 kg/ha", "result": 5.0}, {"measurement": "TRZAWR preemergence herbicidal rating", "setting": "[9]; rate 0.2500 kg/ha", "result": 5.0}, {"measurement": "ZEAMX preemergence herbicidal rating", "setting": "[10]; rate 0.0156 kg/ha", "result": 1.0}, {"measurement": "ZEAMX preemergence herbicidal rating", "setting": "[10]; rate 0.0313 kg/ha", "result": 1.0}, {"measurement": "ZEAMX preemergence herbicidal rating", "setting": "[10]; rate 0.0625 kg/ha", "result": 2.5}, {"measurement": "ZEAMX preemergence herbicidal rating", "setting": "[10]; rate 0.1250 kg/ha", "result": 3.0}, {"measurement": "ZEAMX preemergence herbicidal rating", "setting": "[10]; rate 0.2500 kg/ha", "result": 5.0}, {"measurement": "Herbicidal rating CYPIR", "setting": "[11]; 0.0313 kg/ha", "result": 2.0}, {"measurement": "Herbicidal rating CYPIR", "setting": "[11]; 0.0625 kg/ha", "result": 2.0}, {"measurement": "Herbicidal rating CYPIR", "setting": "[11]; 0.1250 kg/ha", "result": 6.0}, {"measurement": "Herbicidal rating CYPIR", "setting": "[11]; 0.2500 kg/ha", "result": 7.0}, {"measurement": "Herbicidal rating MOOVA", "setting": "[12]; 0.0313 kg/ha", "result": 9.0}, {"measurement": "Herbicidal rating MOOVA", "setting": "[12]; 0.0625 kg/ha", "result": 9.0}, {"measurement": "Herbicidal rating MOOVA", "setting": "[12]; 0.1250 kg/ha", "result": 9.0}, {"measurement": "Herbicidal rating MOOVA", "setting": "[12]; 0.2500 kg/ha", "result": 9.0}, {"measurement": "Herbicidal rating SAGPY", "setting": "[13]; 0.0313 kg/ha", "result": 0.0}, {"measurement": "Herbicidal rating SAGPY", "setting": "[13]; 0.0625 kg/ha", "result": 0.0}, {"measurement": "Herbicidal rating SAGPY", "setting": "[13]; 0.1250 kg/ha", "result": 0.0}, {"measurement": "Herbicidal rating SAGPY", "setting": "[13]; 0.2500 kg/ha", "result": 0.0}, {"measurement": "Herbicidal rating CYPSE", "setting": "[14]; rate 0.0313 kg/ha", "result": 0.0}, {"measurement": "Herbicidal rating CYPSE", "setting": "[14]; rate 0.0625 kg/ha", "result": 0.0}, {"measurement": "Herbicidal rating CYPSE", "setting": "[14]; rate 0.1250 kg/ha", "result": 0.0}, {"measurement": "Herbicidal rating CYPSE", "setting": "[14]; rate 0.2500 kg/ha", "result": 0.0}]}
